The values below come from US10174037B2, “Dihydropyrazolopyrimidinone compounds as PDE2 inhibitors” (Merck Sharp & Dohme Corp., priority 2015, dated 2019).

For one assay, the target named is Rhesus PDE2A3 (Macaca mulatta, UniProt B3VTJ2). Briefly: PDE2 fluorescence polarization (IMAP FP) assay, rhesus PDE2A3. In kind it is biochemical, rhesus macaque. Particulars: Lab B, read-out: Rhesus PDE2 Ki (nM) Lab B. For orientation: Polarisation of emitted light reports the rotation of a fluorescent probe.
For another assay, the target named is human PDE2A1 (Homo sapiens (Human), UniProt O00408). Briefly: PDE selectivity IMAP FP assay, human PDE2A1. In kind it is biochemical. As to conditions: Human PDE2; Lab B; read-out: Human PDE2 Ki (nM) Lab B. An outline of the steps:
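IMAP fluorescence polarization assay; PDE2 substrate 50 nM FAM-cAMP containing 1000 nM cGMP, enzyme diluted for 20% substrate conversion, in 10 mM Tris HCl pH 7.2, 10 mM MgCl2, 1 mM DTT. Reaction 60 min at room temperature, stopped with IMAP binding solution; polarization read after 1 h. Ki reported.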

The term Ki denotes a measure of affinity in units of concentration, obtained from inhibition or displacement.

The structures appear in SMILES notation.

Sequence of human PDE2A1 (O00408 other isoform, or with tags, fused parts or gaps): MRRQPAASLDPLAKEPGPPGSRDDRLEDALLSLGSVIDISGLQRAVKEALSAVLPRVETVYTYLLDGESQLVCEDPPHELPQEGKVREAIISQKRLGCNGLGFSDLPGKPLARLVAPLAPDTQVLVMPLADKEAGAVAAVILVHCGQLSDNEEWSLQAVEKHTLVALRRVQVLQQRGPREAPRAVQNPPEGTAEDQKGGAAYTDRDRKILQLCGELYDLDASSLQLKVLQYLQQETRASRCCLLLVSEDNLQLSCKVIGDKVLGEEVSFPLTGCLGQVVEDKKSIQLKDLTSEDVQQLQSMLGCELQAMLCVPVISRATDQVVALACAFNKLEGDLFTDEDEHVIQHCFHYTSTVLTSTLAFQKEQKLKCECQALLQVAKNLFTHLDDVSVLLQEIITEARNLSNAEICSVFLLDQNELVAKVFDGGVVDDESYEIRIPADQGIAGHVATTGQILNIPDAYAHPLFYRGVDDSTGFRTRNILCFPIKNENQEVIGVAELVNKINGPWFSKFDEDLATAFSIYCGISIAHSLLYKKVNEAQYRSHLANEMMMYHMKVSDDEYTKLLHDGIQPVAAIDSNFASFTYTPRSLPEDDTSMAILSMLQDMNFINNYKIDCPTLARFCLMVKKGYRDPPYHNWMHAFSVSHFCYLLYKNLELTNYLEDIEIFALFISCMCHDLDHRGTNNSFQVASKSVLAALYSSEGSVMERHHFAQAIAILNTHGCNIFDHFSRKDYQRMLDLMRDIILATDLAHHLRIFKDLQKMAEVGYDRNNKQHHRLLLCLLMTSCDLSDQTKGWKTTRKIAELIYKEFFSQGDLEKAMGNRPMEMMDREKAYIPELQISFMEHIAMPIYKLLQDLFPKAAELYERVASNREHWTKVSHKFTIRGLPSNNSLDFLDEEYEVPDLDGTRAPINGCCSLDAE
Sequence of Rhesus PDE2A3 (B3VTJ2 1-941): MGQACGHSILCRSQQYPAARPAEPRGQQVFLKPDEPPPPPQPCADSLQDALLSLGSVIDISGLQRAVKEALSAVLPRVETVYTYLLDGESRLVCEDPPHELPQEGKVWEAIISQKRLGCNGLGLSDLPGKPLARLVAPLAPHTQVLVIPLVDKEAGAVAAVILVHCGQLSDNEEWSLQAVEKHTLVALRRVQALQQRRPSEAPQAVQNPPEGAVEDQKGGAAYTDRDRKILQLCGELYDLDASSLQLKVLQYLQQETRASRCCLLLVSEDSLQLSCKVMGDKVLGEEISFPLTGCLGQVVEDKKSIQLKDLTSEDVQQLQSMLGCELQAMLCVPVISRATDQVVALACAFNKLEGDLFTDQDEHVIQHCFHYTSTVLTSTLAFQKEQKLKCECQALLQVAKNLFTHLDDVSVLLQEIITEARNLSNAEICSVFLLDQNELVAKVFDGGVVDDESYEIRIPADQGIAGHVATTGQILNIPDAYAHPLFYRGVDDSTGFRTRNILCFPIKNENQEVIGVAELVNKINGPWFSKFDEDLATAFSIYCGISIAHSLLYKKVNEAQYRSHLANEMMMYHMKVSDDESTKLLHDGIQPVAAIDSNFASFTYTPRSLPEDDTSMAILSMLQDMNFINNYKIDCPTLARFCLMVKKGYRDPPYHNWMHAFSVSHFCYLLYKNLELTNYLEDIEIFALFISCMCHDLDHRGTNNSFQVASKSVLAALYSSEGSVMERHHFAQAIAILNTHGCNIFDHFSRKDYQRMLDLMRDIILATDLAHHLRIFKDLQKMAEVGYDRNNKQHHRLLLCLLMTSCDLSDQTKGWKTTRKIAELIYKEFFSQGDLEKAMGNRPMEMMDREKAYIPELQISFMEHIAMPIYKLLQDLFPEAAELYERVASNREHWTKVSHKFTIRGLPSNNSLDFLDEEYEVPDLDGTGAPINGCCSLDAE

On to `CC(C)C(c1ccc(C(C)(F)F)c(F)c1)n1nc(CO)c2c(=O)[nH]c(N(C)C)nc21` (single isomer, unassigned) [Example 117, (R)- or (S)-1-(1-(4-(1,1-Difluoroethyl)-3-fluorophenyl)-2-methylpropyl)-6-(dimethylamino)-3-(hydroxymethyl)-1H-pyrazolo[3,4-d]pyrimidin-4(5H)-one], for which the figures for the Ki on Rhesus PDE2A3 and at human PDE2A1 were 0.025 nM and 0.017 nM, respectively.

On to `CC(C)C(c1ccc(C(C)(F)F)cc1F)n1nc(CO)c2c(=O)[nH]c(N(C)C)nc21` (single isomer, unassigned) [Example 118, (R)- or (S)-1-(1-(4-(1,1-Difluoroethyl)-2-fluorophenyl)-2-methylpropyl)-6-(dimethylamino)-3-(hydroxymethyl)-1H-pyrazolo[3,4-d]pyrimidin-4(5H)-one], for which the Ki at Rhesus PDE2A3 came to 0.44 nM; on human PDE2A1 it was 0.42 nM.

As for `CC(C)C(c1ccc(C(C)(F)F)cc1F)n1nc(CO)c2c(=O)[nH]c(N(C)C)nc21` (single isomer, unassigned) [Example 119, (S)- or (R)-(1-(4-(1,1-Difluoroethyl)-2-fluorophenyl)-2-methylpropyl)-6-(dimethylamino)-3-(hydroxymethyl)-1H-pyrazolo[3,4-d]pyrimidin-4(5H)-one], the Ki at Rhesus PDE2A3 was found to be 0.036 nM; on human PDE2A1, 0.024 nM.

`CC(C)C(c1ccc(OC(F)F)cc1)n1nc(CO)c2c(=O)[nH]c(N(C)C)nc21` (single isomer, unassigned) [Example 120]: the Ki on Rhesus PDE2A3 amounted to 0.28 nM; at human PDE2A1, 0.21 nM.

As for `CC(C)C(c1ccc(OC(F)F)cc1)n1nc(CO)c2c(=O)[nH]c(N(C)C)nc21` (single isomer, unassigned) [Example 121], the Ki at Rhesus PDE2A3 came to 0.31 nM; at human PDE2A1, 0.34 nM.

`CN(C)c1nc2c(c(CO)nn2C(c2ccc(OC(F)F)c(F)c2)C2CC2)c(=O)[nH]1` (single isomer, unassigned) [Example 122, (R)- or (S)-1-(Cyclopropyl(4-(difluoromethoxy)-3-fluorophenyl)methyl)-6-(dimethylamino)-3-(hydroxymethyl)-1H-pyrazolo[3,4-d]pyrimidin-4(5H)-one]: the values for the Ki at Rhesus PDE2A3 and at human PDE2A1 were 0.37 nM and 0.3 nM, respectively.

Take `CN(C)c1nc2c(c(CO)nn2C(c2ccc(OC(F)F)c(F)c2)C2CC2)c(=O)[nH]1` (single isomer, unassigned) [Example 123, (S)- or (R)-1-(Cyclopropyl(4-(difluoromethoxy)-3-fluorophenyl)methyl)-6-(dimethylamino)-3-(hydroxymethyl)-1H-pyrazolo[3,4-d]pyrimidin-4(5H)-one]: the Ki at Rhesus PDE2A3 stood at 0.61 nM; on human PDE2A1, 0.6 nM.

`CCC(c1ccc(OC(F)F)cc1)n1nc(CO)c2c(=O)[nH]c(N(C)C)nc21` (single isomer, unassigned) [Example 124, (R)- or (S)-1-(1-(4-(Difluoromethoxy)phenyl)propyl)-6-(dimethylamino)-3-(hydroxymethyl)-1H-pyrazolo[3,4-d]pyrimidin-4(5H)-one]: the Ki on Rhesus PDE2A3 stood at 0.7 nM; on human PDE2A1 it was 0.73 nM.

Turning to `CCC(c1ccc(OC(F)F)c(F)c1)n1nc(CO)c2c(=O)[nH]c(N(C)C)nc21` (single isomer, unassigned) [Example 126, (R)- or (S)-1-(1-(4-(Difluoromethoxy)-3-fluorophenyl)propyl)-6-(dimethylamino)-3-(hydroxymethyl)-1H-pyrazolo[3,4-d]pyrimidin-4(5H)-one], the Ki on Rhesus PDE2A3 was 0.45 nM; at human PDE2A1, 0.3 nM.

Regarding `CCC(c1ccc(OC(F)F)c(F)c1)n1nc(CO)c2c(=O)[nH]c(N(C)C)nc21` (single isomer, unassigned) [Example 127, (S)- or (R)-1-(1-(4-(Difluoromethoxy)-3-fluorophenyl)propyl)-6-(dimethylamino)-3-(hydroxymethyl)-1H-pyrazolo[3,4-d]pyrimidin-4(5H)-one], the Ki on Rhesus PDE2A3 was 1.4 nM; at human PDE2A1 it was 0.81 nM.

Take `CN(C)c1nc2c(c(CO)nn2C(c2ccc(OC(F)F)cc2)C2CC2)c(=O)[nH]1` (single isomer, unassigned) [Example 128, (R)- or (S)-1-(Cyclopropyl(4-(difluoromethoxy)phenyl)methyl)-6-(dimethylamino)-3-(hydroxymethyl)-1H-pyrazolo[3,4-d]pyrimidin-4(5H)-one]: the Ki at Rhesus PDE2A3 came out at 0.55 nM; on human PDE2A1, 0.5 nM.

Regarding `CN(C)c1nc2c(c(CO)nn2C(c2ccc(OC(F)F)cc2)C2CC2)c(=O)[nH]1` (single isomer, unassigned) [Example 129, (S)- or (R)-(Cyclopropyl(4-(difluoromethoxy)phenyl)methyl)-6-(dimethylamino)-3-(hydroxymethyl)-1H-pyrazolo[3,4-d]pyrimidin-4(5H)-one], the Ki is 1 nM on Rhesus PDE2A3 and 0.55 nM at human PDE2A1.

Take `CCC(c1ccc(C(F)(F)F)cc1F)n1nc(CO)c2c(=O)[nH]c(N(C)C)nc21` (single isomer, unassigned) [Example 130, (R)- or (S)-6-(Dimethylamino)-1-(1-(2-fluoro-4-(trifluoromethyl)phenyl)propyl)-3-(hydroxymethyl)-1H-pyrazolo[3,4-d]pyrimidin-4(5H)-one]: the results for the Ki at Rhesus PDE2A3 and at human PDE2A1 were 0.12 nM and 0.071 nM, respectively.

`CC(C)C(c1ccc(C(F)(F)F)cc1F)n1nc(CO)c2c(=O)[nH]c(N(C)C)nc21` (single isomer, unassigned) [Example 132, (R)- or (S)-6-(Dimethylamino)-1-(1-(2-fluoro-4-(trifluoromethyl)phenyl)-2-methylpropyl)-3-(hydroxymethyl)-1H-pyrazolo[3,4-d]pyrimidin-4(5H)-one]: the results for the Ki on Rhesus PDE2A3 and at human PDE2A1 were 0.059 nM and 0.04 nM, respectively.

On to `CC(C)C(c1ccc(C(F)(F)F)cc1F)n1nc(CO)c2c(=O)[nH]c(N(C)C)nc21` (single isomer, unassigned) [Example 133, (S)- or (R)-6-(Dimethylamino)-1-(1-(2-fluoro-4-(trifluoromethyl)phenyl)-2-methylpropyl)-3-(hydroxymethyl)-1H-pyrazolo[3,4-d]pyrimidin-4(5H)-one], for which the figures for the Ki on Rhesus PDE2A3 and at human PDE2A1 were 0.6 nM and 0.45 nM, respectively.

Take `CN(C)c1nc2c(c(CO)nn2C(c2ccc(C(F)(F)F)cc2F)C2CC2)c(=O)[nH]1` (single isomer, unassigned) [Example 134, (R)- or (S)-1-(Cyclopropyl(2-fluoro-4-(trifluoromethyl)phenyl)methyl)-6-(dimethylamino)-3-(hydroxymethyl)-1H-pyrazolo[3,4-d]pyrimidin-4(5H)-one]: the Ki worked out at 0.05 nM at Rhesus PDE2A3 and 0.047 nM on human PDE2A1.

Consider `CN(C)c1nc2c(c(CO)nn2C(c2ccc(C(F)(F)F)cc2F)C2CC2)c(=O)[nH]1` (single isomer, unassigned) [Example 135, (S)- or (R)-1-(Cyclopropyl(2-fluoro-4-(trifluoromethyl)phenyl)methyl)-6-(dimethylamino)-3-(hydroxymethyl)-1H-pyrazolo[3,4-d]pyrimidin-4(5H)-one], for which the Ki at Rhesus PDE2A3 was determined as 0.72 nM; on human PDE2A1, 0.6 nM.

Turning to `CCC(c1ccc(C(C)(F)F)cc1)n1nc(CO)c2c(=O)[nH]c(N(C)C)nc21` (single isomer, unassigned) [Example 137, (S)- or (R)-1-(1-(4-(1,1-Difluoroethyl)phenyl)propyl)-6-(dimethylamino)-3-(hydroxymethyl)-1H-pyrazolo[3,4-d]pyrimidin-4(5H)-one], the Ki on Rhesus PDE2A3 came to 0.14 nM; at human PDE2A1 it was 0.073 nM.

For the compound `CC(C)C(c1ccc(C(C)(F)F)cc1)n1nc(CO)c2c(=O)[nH]c(N(C)C)nc21` (single isomer, unassigned) [Example 138, (R)- or (S)-1-(1-(4-(1,1-Difluoroethyl)phenyl)-2-methylpropyl)-6-(dimethylamino)-3-(hydroxymethyl)-1H-pyrazolo[3,4-d]pyrimidin-4(5H)-one], the values for the Ki at Rhesus PDE2A3 and on human PDE2A1 were 0.41 nM and 0.19 nM, respectively.

With `CC(C)C(c1ccc(C(C)(F)F)cc1)n1nc(CO)c2c(=O)[nH]c(N(C)C)nc21` (single isomer, unassigned) [Example 139, (S)- or (R)-1-(1-(4-(1,1-Difluoroethyl)phenyl)-2-methylpropyl)-6-(dimethylamino)-3-(hydroxymethyl)-1H-pyrazolo[3,4-d]pyrimidin-4(5H)-one], the results for the Ki at Rhesus PDE2A3 and on human PDE2A1 were 0.04 nM and 0.064 nM, respectively.

On to `CN(C)c1nc2c(c(CO)nn2C(c2ccc(C(C)(F)F)cc2)C2CC2)c(=O)[nH]1` (single isomer, unassigned) [Example 140, (R)- or (S)-1-(Cyclopropyl(4-(1,1-difluoroethyl)phenyl)methyl)-6-(dimethylamino)-3-(hydroxymethyl)-1H-pyrazolo[3,4-d]pyrimidin-4(5H)-one], for which the figures for the Ki on Rhesus PDE2A3 and on human PDE2A1 were 0.097 nM and 0.07 nM, respectively.

For the compound `CN(C)c1nc2c(c(CO)nn2C(c2ccc(C(C)(F)F)cc2)C2CC2)c(=O)[nH]1` (single isomer, unassigned) [Example 141, (S)- or (R)-1-(Cyclopropyl(4-(1,1-difluoroethyl)phenyl)methyl)-6-(dimethylamino)-3-(hydroxymethyl)-1H-pyrazolo[3,4-d]pyrimidin-4(5H)-one], the Ki on Rhesus PDE2A3 was 0.64 nM; at human PDE2A1 it was 0.56 nM.

For the compound `CC(C)C(c1ccc(C(F)(F)F)c(F)c1)n1nc(CO)c2c(=O)[nH]c(N(C)C)nc21` (single isomer, unassigned) [Example 142, (R)- or (S)-6-(Dimethylamino)-1-(1-(3-fluoro-4-(trifluoromethyl)phenyl)-2-methylpropyl)-3-(hydroxymethyl)-1H-pyrazolo[3,4-d]pyrimidin-4(5H)-one], the Ki at Rhesus PDE2A3 is 0.29 nM; on human PDE2A1, 0.19 nM.
